# Tests used:
# Type in all cases: cell-based
# hTREK1∆N = target: T1, hTREK1∆N (Homo sapiens, UniProt O95069); assay: Whole-cell patch clamp, transiently transfected tsA-201 cells, TREK1ΔN; conditions: 1 μM, n = 5
# T1 construct: expressed in transfected cells; host or cells: tsA-201, transient, pcDNA3.1 vector
# Protocol: (§1) Recordings of hTREK1, hTREK1∆N, hTREK2, hTRAAK and […] currents from transiently transfected tsA‐201 cells were performed using methods as described in Veale and Mathie (2016). Briefly, the pcDNA3.1 vector was cloned with the gene of interest, and these vectors and a similar vector containing GFP were incorporated into the tsA201 cells (0.5 μg per well) using the calcium phosphate method. The cells were incubated for 6–12 h at 37°C in […] and 5% carbon dioxide. Cells were then washed using a PBS solution and used for experiments after 24 h.
# (§2) Currents were recorded using whole‐cell patch‐clamp using an Axopatch 1D amplifier. Cells were placed in a recording chamber filled with an external medium composed of 145 mM, NaCl, 2.5 mM KCl, 3 mM MgCl2, 1 mM CaCl2 and 10 mM HEPES (pH to 7.4, using NaOH). The internal medium used in the glass pipette comprised 150 mM KCl, 3 mM MgCl2, 5 mM (or 0.1 mM) EGTA and 10 mM HEPES (pH to 7.4, using KOH). GI‐530159 was applied by bath perfusion. Currents were recorded and analysed using pCLAMP 10.2 software Microsoft Excel. The voltage protocol used for recording current through K2P channels was as previously described (Veale and Mathie, 2016). For analysis, we measured the current difference between the −80 and −40 mV steps.
# hTREK2 = target: T2, hTREK2 (Homo sapiens, UniProt P57789); assay: Whole-cell patch clamp, transiently transfected tsA-201 cells, TREK2; conditions: 1 μM, n = 6
# T2 construct: expressed in transfected cells; host or cells: tsA-201, transient, pcDNA3.1 vector
# T2 sequence (P57789 whole entry): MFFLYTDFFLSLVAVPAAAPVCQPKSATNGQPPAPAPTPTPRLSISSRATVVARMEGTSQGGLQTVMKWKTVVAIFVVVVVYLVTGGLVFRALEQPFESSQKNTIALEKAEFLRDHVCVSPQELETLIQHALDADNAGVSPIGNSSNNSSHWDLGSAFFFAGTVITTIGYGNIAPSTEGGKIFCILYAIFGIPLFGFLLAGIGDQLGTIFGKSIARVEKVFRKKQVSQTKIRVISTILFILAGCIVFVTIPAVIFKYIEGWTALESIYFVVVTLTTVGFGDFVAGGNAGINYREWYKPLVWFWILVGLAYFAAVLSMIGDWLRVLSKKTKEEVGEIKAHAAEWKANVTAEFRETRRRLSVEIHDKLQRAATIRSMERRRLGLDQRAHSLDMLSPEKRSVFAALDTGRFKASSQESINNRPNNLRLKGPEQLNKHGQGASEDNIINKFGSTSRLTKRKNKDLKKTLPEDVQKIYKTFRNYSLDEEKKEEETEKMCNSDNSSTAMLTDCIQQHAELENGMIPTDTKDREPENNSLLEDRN
# Protocol: as §1, §2
# Kv7.1 = Kv7.1 (Homo sapiens, UniProt P51787); assay: Rb+ efflux assay, Kv7.1
# hTREK1 [1] = target: T3, hTREK1 (Homo sapiens, UniProt O95069); assay: 86Rb efflux from CHO–hTREK1 cells; design: expressed in transfected cells; conditions: 60 min exposure, fit of logistic equation
# T3 sequence (O95069 1-426): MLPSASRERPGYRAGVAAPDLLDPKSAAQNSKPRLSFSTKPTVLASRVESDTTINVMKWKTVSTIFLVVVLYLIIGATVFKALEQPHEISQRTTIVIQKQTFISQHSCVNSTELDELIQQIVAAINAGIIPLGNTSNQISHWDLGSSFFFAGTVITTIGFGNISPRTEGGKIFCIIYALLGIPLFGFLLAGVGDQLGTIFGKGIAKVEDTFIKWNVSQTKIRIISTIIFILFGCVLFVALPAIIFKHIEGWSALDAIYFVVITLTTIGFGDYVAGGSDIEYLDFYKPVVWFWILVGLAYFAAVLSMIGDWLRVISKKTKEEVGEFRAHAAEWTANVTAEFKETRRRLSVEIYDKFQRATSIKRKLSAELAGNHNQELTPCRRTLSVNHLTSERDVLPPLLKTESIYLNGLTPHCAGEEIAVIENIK
# Protocol: CHO–hTREK1 cells were plated on 96‐well, tissue culture‐treated clear plates (92 696) the day before the assay and incubated overnight at 37°C in the presence of 1 μCi·mL^−1 86Rubidium (Rb, NEZ072, Perkin Elmer, Waltham MA, USA). Prior to commencement of the assay, the ^86Rb spiked media were removed from the plate, and cells were washed four times with 100 μL of a 5 mM K^+ ‘Earle's balance salt solution’ (EBSS) buffer containing 135 mM NaCl, 5.4 mM KCl, 1.8 mM CaCl2, 0.8 mM MgCl2,10 mM HEPES and 5 mM glucose, pH 7.4 (adjusted with NaOH). […] Both counting plates were then read on the Wallac Microbeta to measure ^86Rb content [counts per min (CPM)]. % ^86Rb efflux values were calculated as follows: ^86Rbefflux%cell content=CPMin efflux buffer/CPMin efflux buffer+CPMin cell lysate*100.
# Magnitude of ^86Rb efflux stimulation was calculated as follows: %Activation=%efflux test well−efflux in5.4mMK^+EBSS/Efflux in70mMK^+EBSS−efflux in5.4mMK^+EBSS*100.
# Half maximal activation of ^86Rb efflux (EC50) value was calculated using IDBS Xlfit using a four‐parameter logistic equation and expressed as mean ± SEM.
# K2P18.1 (TRESK) = target: T4, K2P18.1 (TRESK) (Homo sapiens, UniProt Q7Z418); assay: Manual patch clamp in recombinant cell lines, TRESK; conditions: 10 μM; n = 4
# T4 construct: expressed in transfected cells
# T4 sequence (Q7Z418 whole entry, species assumed): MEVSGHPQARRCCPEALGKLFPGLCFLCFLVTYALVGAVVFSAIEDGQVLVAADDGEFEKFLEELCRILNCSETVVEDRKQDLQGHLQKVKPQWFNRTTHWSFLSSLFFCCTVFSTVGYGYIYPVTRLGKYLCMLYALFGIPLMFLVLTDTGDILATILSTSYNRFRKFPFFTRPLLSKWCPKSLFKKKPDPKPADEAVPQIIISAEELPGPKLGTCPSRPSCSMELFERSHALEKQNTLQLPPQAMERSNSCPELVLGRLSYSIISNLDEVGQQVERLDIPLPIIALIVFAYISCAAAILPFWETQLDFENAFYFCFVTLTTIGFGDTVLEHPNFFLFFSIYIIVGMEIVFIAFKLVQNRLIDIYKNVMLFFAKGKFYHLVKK
# Kv7.2 = Kv7.2 (Homo sapiens, UniProt O43526); assay: Rb+ efflux assay, Kv7.2
# hTREK1 [2] = target: T3, hTREK1; assay: Whole-cell patch clamp, transiently transfected tsA-201 cells, TREK1; design: expressed in transfected cells; host or cells: tsA-201, transient, pcDNA3.1 vector, GFP from a separate vector; conditions: 1 μM, n = 6
# Protocol: as §1, §2
# NaV1.7 = NaV1.7 (Homo sapiens, UniProt Q15858); assay: Sodium channel selectivity, NaV1.7; conditions: read-out: EC50 against NaV1.7
# Chain of NaV1.7 (Q15858 whole entry): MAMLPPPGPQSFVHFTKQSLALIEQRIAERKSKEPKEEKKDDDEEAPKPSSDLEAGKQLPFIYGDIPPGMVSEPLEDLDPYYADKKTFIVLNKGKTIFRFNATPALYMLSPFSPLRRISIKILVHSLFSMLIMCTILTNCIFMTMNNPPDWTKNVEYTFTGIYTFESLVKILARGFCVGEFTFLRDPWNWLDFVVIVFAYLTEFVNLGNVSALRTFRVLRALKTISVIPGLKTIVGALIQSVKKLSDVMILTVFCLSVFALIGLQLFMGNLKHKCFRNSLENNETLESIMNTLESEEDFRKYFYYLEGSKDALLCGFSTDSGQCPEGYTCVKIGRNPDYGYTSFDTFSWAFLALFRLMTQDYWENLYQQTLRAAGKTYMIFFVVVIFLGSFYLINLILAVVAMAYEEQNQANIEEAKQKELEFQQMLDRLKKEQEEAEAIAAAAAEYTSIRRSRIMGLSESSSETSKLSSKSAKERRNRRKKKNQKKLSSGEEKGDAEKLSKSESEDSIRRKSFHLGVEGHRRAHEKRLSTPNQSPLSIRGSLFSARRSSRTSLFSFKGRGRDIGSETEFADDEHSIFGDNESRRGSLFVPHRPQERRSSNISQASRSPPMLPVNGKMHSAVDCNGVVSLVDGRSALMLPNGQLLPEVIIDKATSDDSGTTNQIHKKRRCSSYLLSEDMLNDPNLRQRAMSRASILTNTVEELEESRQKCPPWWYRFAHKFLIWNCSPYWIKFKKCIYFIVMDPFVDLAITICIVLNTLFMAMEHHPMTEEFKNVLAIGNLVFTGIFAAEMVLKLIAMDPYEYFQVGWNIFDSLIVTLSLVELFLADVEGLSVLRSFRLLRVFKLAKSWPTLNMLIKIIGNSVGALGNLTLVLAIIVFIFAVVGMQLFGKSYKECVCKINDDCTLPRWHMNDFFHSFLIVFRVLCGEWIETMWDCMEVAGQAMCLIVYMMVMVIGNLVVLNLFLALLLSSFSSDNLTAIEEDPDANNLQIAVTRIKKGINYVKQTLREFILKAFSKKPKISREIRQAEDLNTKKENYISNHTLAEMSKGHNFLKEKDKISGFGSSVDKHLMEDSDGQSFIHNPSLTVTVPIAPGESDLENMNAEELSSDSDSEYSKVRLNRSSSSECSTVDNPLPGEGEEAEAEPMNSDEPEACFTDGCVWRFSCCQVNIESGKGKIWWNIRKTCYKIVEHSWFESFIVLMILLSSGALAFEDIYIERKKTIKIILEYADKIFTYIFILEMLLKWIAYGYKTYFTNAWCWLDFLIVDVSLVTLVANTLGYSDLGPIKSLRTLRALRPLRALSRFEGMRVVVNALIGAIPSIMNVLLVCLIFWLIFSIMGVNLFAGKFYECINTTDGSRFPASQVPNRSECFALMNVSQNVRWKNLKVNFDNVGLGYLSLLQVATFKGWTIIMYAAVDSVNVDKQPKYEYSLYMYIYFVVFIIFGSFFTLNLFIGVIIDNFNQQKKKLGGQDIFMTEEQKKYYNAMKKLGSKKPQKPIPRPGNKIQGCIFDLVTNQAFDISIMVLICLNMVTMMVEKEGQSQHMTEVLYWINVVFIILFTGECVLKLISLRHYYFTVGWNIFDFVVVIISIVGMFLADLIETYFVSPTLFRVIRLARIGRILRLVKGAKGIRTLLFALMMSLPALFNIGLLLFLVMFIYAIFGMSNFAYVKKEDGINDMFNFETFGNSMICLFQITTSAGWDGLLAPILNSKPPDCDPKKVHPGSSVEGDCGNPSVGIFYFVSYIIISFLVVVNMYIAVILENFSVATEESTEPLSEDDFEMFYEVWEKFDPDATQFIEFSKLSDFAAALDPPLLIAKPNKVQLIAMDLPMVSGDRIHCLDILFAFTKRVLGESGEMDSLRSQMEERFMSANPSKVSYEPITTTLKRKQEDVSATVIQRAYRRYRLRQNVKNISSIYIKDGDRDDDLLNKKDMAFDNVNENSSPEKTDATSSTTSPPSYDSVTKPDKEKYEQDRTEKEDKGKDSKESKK
# Kv7.3 = Kv7.3 (Homo sapiens, UniProt O43525); assay: Rb+ efflux assay, Kv7.3
# TASK3 (K2P9.1) = TASK3 (K2P9.1) (Homo sapiens, UniProt Q9NPC2); assay: Activated current, TASK3 channels; conditions: 1 μM; n = 5
# Chain of TASK3 (K2P9.1) (Q9NPC2 whole entry, species assumed): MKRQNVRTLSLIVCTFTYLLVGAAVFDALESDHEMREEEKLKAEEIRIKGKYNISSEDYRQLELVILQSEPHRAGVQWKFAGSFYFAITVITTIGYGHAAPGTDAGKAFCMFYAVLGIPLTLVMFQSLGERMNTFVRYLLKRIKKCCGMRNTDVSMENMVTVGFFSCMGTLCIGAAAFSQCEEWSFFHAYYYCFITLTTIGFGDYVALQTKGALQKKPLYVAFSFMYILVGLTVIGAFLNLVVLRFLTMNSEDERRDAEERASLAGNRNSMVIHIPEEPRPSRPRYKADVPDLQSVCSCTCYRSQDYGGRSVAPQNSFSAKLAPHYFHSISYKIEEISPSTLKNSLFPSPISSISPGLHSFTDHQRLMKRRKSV
# NaV1.8 = NaV1.8 (Homo sapiens, UniProt Q9Y5Y9); assay: Sodium channel selectivity, NaV1.8; conditions: read-out: EC50 against NaV1.8
# NaV1.2 = NaV1.2 (Homo sapiens, UniProt Q99250); assay: Sodium channel selectivity, NaV1.2; conditions: read-out: EC50 against NaV1.2
compound,measurement,setting,value
"Nc1ccc(Oc2ccc(C(c3ccc(Oc4ccc(N)cc4)cc3)(C(F)(F)F)C(F)(F)F)cc2)cc1 [GI‐530159, 4,4′‐(hexafluoroisopropylidene)bis(p‐phenyleneoxy)dianiline]",enhancement of TREK1ΔN current,hTREK1∆N,377 ± 57%
same,enhancement of TREK2 current,hTREK2,42 ± 6%
same,activator effect on Kv7.1,Kv7.1,no activator effects
same,EC50,hTREK1 [1]; read-out: EC50 for stimulation of 86Rb efflux,0.76 ± 0.1 µM
same,Emax,"hTREK1 [1]; normalized to 70 mM K, read-out: maximum effect on 86Rb efflux, % of that seen with 70 mM K",142 ± 2%
same,effect on K2P18.1 (TRESK) current,K2P18.1 (TRESK),−2.0 ± 3.5%
same,activator effect on Kv7.2,Kv7.2,no activator effects
same,enhancement of TREK1 current,hTREK1 [2],69 ± 12%
same,EC50,NaV1.7,> 100 µM
same,activator effect on Kv7.3,Kv7.3,no activator effects
same,"activated current, TASK3 channels",TASK3 (K2P9.1),0.02 ± 0.005 nA
same,EC50,NaV1.8,> 100 µM
same,EC50,NaV1.2,> 100 µM
